Data from PMC4859512, “Polyamino-Isoprenic Derivatives Block Intrinsic Resistance of P. aeruginosa to Doxycycline and Chloramphenicol In Vitro” (PLoS ONE, 2016).
Residues, ends and D or L forms follow the SMILES beside them. *: point of attachment. βNA = c1ccc2cc(N*)ccc2c1

Assays:
[1] = test system: P. aeruginosa PA0-7H (Mex EF overproducer); experiment: Antibiotic susceptibility testing (broth micro-dilution MIC), strain PA0-7H; assay type: cell-based, Pseudomonas aeruginosa; conditions: PA0-7H
Procedure: (§1) Experiments were performed on the BAC-SCREEN platform of the UMR-MD1, with a Freedom EVO 150 liquid handling system (Tecan, Lyon, France).
(§2) We concluded that compound 3 was the best compound and suitable for a more detailed study. The same experiment was performed using chloramphenicol (4 mg/L) in combination with 3 (10 μM final concentration). Amongst the 20 clinical isolates, the growth of 15 (75%) was impaired, while 5 (25%) were resistant (data not shown). These experiments were performed to study the effect of our compounds on the natural resistance of P. aeruginosa. In addition, we were wondering if compound 3 could also increase susceptibility to other antibiotic families including ß-Lactams, fluoroquinolones and aminoglycosides, that are representative of the main classes of anti-pseudomonal agents. Experiments were performed with the ß-lactams ceftazidime and ticarcillin and ciprofloxacin and amikacin. […] . […] To better characterize compound 3, we first searched for the minimum concentration of compound that allowed killing of bacteria by doxycycline, and PAßN was used as the reference molecule.

[2] = test system: P. aeruginosa PT629 (Mex AB overproducer); experiment: Antibiotic susceptibility testing (broth micro-dilution MIC), strain PT629; assay type: cell-based, Pseudomonas aeruginosa; conditions: PT629
Procedure: as §1, §2

P. aeruginosa PA01 [3] = experiment: Comparison of efficiency between compounds and PAßN (compound gradient with 2 mg/L doxycycline); assay type: cell-based, Pseudomonas aeruginosa; conditions: PA01, doxycycline 2 mg/L, 18 h
Procedure: Serial dilutions of each compound (from 270 μM to 0.95 μM for PAßN and from 135 μM to 0.06 μM for 3) were prepared in microplates. Doxycycline (2 mg/L) was then added to each well before inoculation of bacteria (5x10^5 cfu/mL). Optical density (600 nm) was measured after 18 hours at 37°C. Only the relevant part of the graphs are shown. Experiments were performed in triplicate.
First, we performed a checkerboard assay to analyze the synergy between doxycycline and the polyamino-isoprenic compound and between doxycycline and PAβN. For both, compound 3 and PAβN we observed a synergistic inhibition of growth when combined with doxycycline with a FIC Index of 0.09 (S2 Table). […] PAßN is generally used at a concentration greater than 10 μM to inhibit the resistance of P. aeruginosa with respect to various antibiotics, and, to our knowledge, no data have been reported in the literature on its use in combination with doxycycline. The percentage of growth inhibition was monitored as a function of compound concentration, and the results are presented in Fig 3.

P. aeruginosa PA01 (wt) = experiment: Antibiotic susceptibility testing (broth micro-dilution MIC), strain PA01; assay type: cell-based, Pseudomonas aeruginosa; conditions: PA01
Procedure: as §1
(§3) The same experiment was performed using chloramphenicol (4 mg/L) in combination with 3 (10 μM final concentration). […] These experiments were performed to study the effect of our compounds on the natural resistance of P. aeruginosa. […] Experiments were performed with the ß-lactams ceftazidime and ticarcillin and ciprofloxacin and amikacin.

[4] = test system: P. aeruginosa PA01 ERY^R (Mex CD overproducer); experiment: microbe, parasite or virus in culture; assay type: cell-based, Pseudomonas aeruginosa; conditions: PA01 ERY R
Procedure: as §1, §3

P. aeruginosa PA01 [5] = experiment: Checkerboard assay with doxycycline; assay type: cell-based, Pseudomonas aeruginosa; conditions: PA01
Procedure: Serial two-fold dilutions of antimicrobial agents were mixed together in a microtiter plate. The range of concentration of each drug was twice the MIC, down to the eleventh serial two-fold dilutions below this amount. Doxycycline was serially diluted along the X-axis, and the polyamino-isoprenic compound or PAßN was diluted along the Y-axis as indicated. Each well was inoculated with a bacterial inoculum of 5 x 10^5 CFU/ml, and the plates were incubated at 37°C for 18 h under aerobic conditions. Each plate also contained a row and a column in which a serial dilution of polyamino-isoprenic compound or doxycycline, respectively, was present alone to determine the MIC. The FIC index was calculated as follows: FIC index = FIC A + FIC B, where FIC A is the MIC of drug A in the combination/MIC of drug A alone and FIC B is the MIC of drug B in the combination/MIC of drug B alone. The combination was considered synergistic when the FIC index is ≤0.5, and antagonistic when the FIC index is > 4 [26].

[6] = test system: P. aeruginosa CMZ091 (Mex XY overproducer); experiment: Antibiotic susceptibility testing (broth micro-dilution MIC), strain CMZ091; assay type: cell-based, Pseudomonas aeruginosa; conditions: CMZ091
Procedure: as §1, §2

human fibroblasts = experiment: WST-1 cytotoxicity test, fibroblasts; assay type: cell-based; conditions: Homo sapiens, Fibroblast; WST1, 24 h; mean +/- SD, 2 independent experiments
Procedure: (§4) CHO-K1 cells (ATCC-LGC Standards Sarl (Molsheim, France) and human fibroblasts (Clinisciences, Paris, France) were maintained in McCoy’s 5A and DMEM media, respectively, supplemented with 10% bovine calf serum, 2 mM glutamine, and 100 U/mL/10 μg/mL penicillin/streptomycin. They were incubated at 37°C in a humidified atmosphere containing 5% CO2. The cell lines were seeded in 96-well plates and incubated overnight. The cytotoxic effects of compounds were assessed by the colorimetric WST-1 cell proliferation assay as previously described. Briefly, a range of compound concentrations from 30 μM to 1200 μM was added to triplicate cultures, and cells were incubated at 37°C for 24 h. At the end of the incubation period, cultures were washed three times with phosphate buffer saline (PBS) and incubated in fresh culture medium containing 10% WST-1 for an additional 30 min. Cell viability was evaluated by measuring the WST-1 absorbance at 450 nm in a microplate spectrophotometer MRX1 II (Dynex technologies, Chantilly, VA, USA). The Inhibitory Concentration 50% (IC50) was chosen to evaluate the cytotoxicity of compounds. IC50 was defined as the concentration of a compound that induced a 50% decrease in viable cells. Doxorubicin was used as a positive control.

CHO-K1 cells = experiment: cells; assay type: cell-based, Chinese Hamster; conditions: Cricetulus griseus, CHO-K1; WST1, 24 h; mean +/- SD, 2 independent experiments
Procedure: as §4

[7] = doxycycline MIC in the combination 0.125 µg/ml
[8] = doxycycline MIC in the combination 0.25 µg/ml
[9] = doxycycline MIC in the combination 0.5 µg/ml
[10] = doxycycline MIC in the combination 1 µg/ml
[11] = doxycycline MIC in the combination 2 µg/ml
[12] = doxycycline MIC in the combination 4 µg/ml
[13] = doxycycline MIC in the combination 8 µg/ml
[14] = doxycycline MIC in the combination 16 µg/ml

SMILES: NC(N)=NCCC[C@H](NC(=O)[C@@H](N)Cc1ccccc1)C(=O)Nc1ccc2ccccc2c1 [PAßN, Phenylalanine-Arginine Beta-Naphthylamide, reference compound] (H-Phe-Arg-βNA)
- MIC of Amikacin in the presence of the compound ([1]; compound 10µM): 4 µg/mL
- MIC of Ceftazidime in the presence of the compound ([1]; compound 10µM): 1 µg/mL
- MIC of Ciprofloxacin in the presence of the compound ([1]; compound 10µM): 4 µg/mL
- MIC of Ticarcillin in the presence of the compound ([1]; compound 10µM): 8 µg/mL
- MIC of Amikacin in the presence of the compound ([1]; compound 30µM): 4 µg/mL
- MIC of Ceftazidime in the presence of the compound ([1]; compound 30µM): 1 µg/mL
- MIC of Ciprofloxacin in the presence of the compound ([1]; compound 30µM): 4 µg/mL
- MIC of Ticarcillin in the presence of the compound ([1]; compound 30µM): 8 µg/mL
- MIC of Amikacin in the presence of the compound ([2]; compound 10µM): 4 µg/mL
- MIC of Ceftazidime in the presence of the compound ([2]; compound 10µM): 8 µg/mL
- MIC of Ciprofloxacin in the presence of the compound ([2]; compound 10µM): 0.5 µg/mL
- MIC of Ticarcillin in the presence of the compound ([2]; compound 10µM): > 64 µg/mL
- MIC of Amikacin in the presence of the compound ([2]; compound 30µM): 4 to 8 µg/mL
- MIC of Ceftazidime in the presence of the compound ([2]; compound 30µM): 2 to 4 µg/mL
- MIC of Ciprofloxacin in the presence of the compound ([2]; compound 30µM): 0.5 µg/mL
- MIC of Ticarcillin in the presence of the compound ([2]; compound 30µM): > 64 µg/mL
- concentration needed to inhibit growth in the presence of doxycycline (P. aeruginosa PA01 [3]): ≥ 15.6 mg/L
- concentration needed to inhibit growth in the presence of doxycycline (P. aeruginosa PA01 [3]; graphically determined on Fig 3): ≥ 30 µM
- MIC of Amikacin in the presence of the compound (P. aeruginosa PA01 (wt); compound 10µM): 16 µg/mL
- MIC of Ceftazidime in the presence of the compound (P. aeruginosa PA01 (wt); compound 10µM): 2 µg/mL
- MIC of Ciprofloxacin in the presence of the compound (P. aeruginosa PA01 (wt); compound 10µM): 0.125 µg/mL
- MIC of Ticarcillin in the presence of the compound (P. aeruginosa PA01 (wt); compound 10µM): 32 µg/mL
- MIC of Amikacin in the presence of the compound (P. aeruginosa PA01 (wt); compound 30µM): 16 µg/mL
- MIC of Ceftazidime in the presence of the compound (P. aeruginosa PA01 (wt); compound 30µM): 1 µg/mL
- MIC of Ciprofloxacin in the presence of the compound (P. aeruginosa PA01 (wt); compound 30µM): ≤ 0.06 µg/mL
- MIC of Ticarcillin in the presence of the compound (P. aeruginosa PA01 (wt); compound 30µM): 32 µg/mL
- MIC of Amikacin in the presence of the compound ([4]; compound 10µM): 2 µg/mL
- MIC of Ceftazidime in the presence of the compound ([4]; compound 10µM): 2 µg/mL
- MIC of Ciprofloxacin in the presence of the compound ([4]; compound 10µM): 0.125 µg/mL
- MIC of Ticarcillin in the presence of the compound ([4]; compound 10µM): 32 µg/mL
- MIC of Amikacin in the presence of the compound ([4]; compound 30µM): 2 µg/mL
- MIC of Ceftazidime in the presence of the compound ([4]; compound 30µM): 2 µg/mL
- MIC of Ciprofloxacin in the presence of the compound ([4]; compound 30µM): ≤ 0.06 µg/mL
- MIC of Ticarcillin in the presence of the compound ([4]; compound 30µM): 32 µg/mL
- Concentration of compound associated (P. aeruginosa PA01 [5]; [7]): 128 µM
- Effect (P. aeruginosa PA01 [5]; [7]): Synergistic (synergistic when the FIC index is ≤0.5)
- FIC index (P. aeruginosa PA01 [5]; [7]): 0.13
- Concentration of compound associated (P. aeruginosa PA01 [5]; [8]): 32 µM
- Effect (P. aeruginosa PA01 [5]; [8]): Synergistic (synergistic when the FIC index is ≤0.5)
- FIC index (P. aeruginosa PA01 [5]; [8]): 0.04
- Concentration of compound associated (P. aeruginosa PA01 [5]; [9]): 32 µM
- Effect (P. aeruginosa PA01 [5]; [9]): Synergistic (synergistic when the FIC index is ≤0.5)
- FIC index (P. aeruginosa PA01 [5]; [9]): 0.05
- Concentration of compound associated (P. aeruginosa PA01 [5]; [10]): 32 µM
- Effect (P. aeruginosa PA01 [5]; [10]): Synergistic (synergistic when the FIC index is ≤0.5)
- FIC index (P. aeruginosa PA01 [5]; [10]): 0.06
- Concentration of compound associated (P. aeruginosa PA01 [5]; [11]): 32 µM
- Effect (P. aeruginosa PA01 [5]; [11]): Synergistic (synergistic when the FIC index is ≤0.5)
- FIC index (P. aeruginosa PA01 [5]; [11]): 0.09
- Concentration of compound associated (P. aeruginosa PA01 [5]; [12]): 8 µM
- Effect (P. aeruginosa PA01 [5]; [12]): Synergistic (synergistic when the FIC index is ≤0.5)
- FIC index (P. aeruginosa PA01 [5]; [12]): 0.13
- Concentration of compound associated (P. aeruginosa PA01 [5]; [13]): 4 µM
- Effect (P. aeruginosa PA01 [5]; [13]): Synergistic (synergistic when the FIC index is ≤0.5)
- Concentration of compound associated (P. aeruginosa PA01 [5]; [14]): 2 µM
- Effect (P. aeruginosa PA01 [5]; [14]): Synergistic (synergistic when the FIC index is ≤0.5)
- FIC index (P. aeruginosa PA01 [5]; [14]): 0.5
- FIC index (P. aeruginosa PA01 [5]; combination with doxycycline): 0.09
- MIC of Amikacin in the presence of the compound ([6]; compound 10µM): 64 µg/mL
- MIC of Ceftazidime in the presence of the compound ([6]; compound 10µM): 2 µg/mL
- MIC of Ciprofloxacin in the presence of the compound ([6]; compound 10µM): 0.5 µg/mL
- MIC of Ticarcillin in the presence of the compound ([6]; compound 10µM): 16 to 32 µg/mL
- MIC of Amikacin in the presence of the compound ([6]; compound 30µM): 32 to 64 µg/mL
- MIC of Ceftazidime in the presence of the compound ([6]; compound 30µM): 2 µg/mL
- MIC of Ciprofloxacin in the presence of the compound ([6]; compound 30µM): 0.25 µg/mL
- MIC of Ticarcillin in the presence of the compound ([6]; compound 30µM): 16 to 32 µg/mL

SMILES: COc1cccc2c1C(=O)c1c(O)c3c(c(O)c1C2=O)C[C@@](O)(C(=O)CO)C[C@@H]3O[C@H]1C[C@H](N)[C@H](O)[C@H](C)O1 [Doxorubicin, reference compound]
- IC50 (human fibroblasts): 12.4 ± 2.1 µM
- IC50 (CHO-K1 cells): 48.3 ± 6.8 µM
